Measured values from PubChem BioAssay (NCI).
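All cell lines were grown in 96-well plates and treated with compound for 48 hours. TGI is the concentration that stops growth completely.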

Experiments:
Experiment in all cases: NCI-60 cell line screen, 48 h
[1] = system: ACHN renal
[2] = system: CAKI-1 renal
[3] = system: HCC-2998 colon
[4] = system: HL-60(TB) leukemia
[5] = system: HS 578T breast
[6] = system: HT29 colon
[7] = system: LOX IMVI melanoma
[8] = system: MDA-MB-435
[9] = system: NCI-H23 lung
[10] = system: OVCAR-3 ovarian
[11] = system: SF-295 CNS
[12] = system: SK-MEL-2 melanoma
[13] = system: SK-MEL-5 melanoma
[14] = system: SNB-19 CNS
[15] = system: SNB-75 CNS
[16] = system: U251 CNS
[17] = system: UO-31 renal

Measured: TGI

CSCCCS/C1=C/CCCCCCCCCC1
> 100 µM: all assays above
